Reference: patent US8053585B2, “Protecting group for carboxylic acids that can be photolyzed by visible light” (Cornell Research Foundation, Inc., priority 2006, dated 2011)

Tested on: GluR6 glutamate receptor
Assay: Stability in aqueous solution by whole-cell recording, cells used as glutamate detector
Type: cell-based
Conditions: 2 mM solution, 24 h in the dark at −20° C., pH 7.4
Description: In whole-cell current recording experiments with DECM-caged glutamate, HEK 293 cells stably transfected with cDNA encoding the GluR6 were used. In whole-cell current recording experiments with DECM-caged glycine, HEK 293 cells were transiently transfected with the cDNA of the α1-subunit of the human glycine receptor by using the Polyfect™ transfection reagent (Qiagen GmbH, D-40724, Hilden, Germany). The cDNA of the α1-subunit was kindly provided by Professor H. Betz (Max-Plank-Institute for brain Research, Frankfurt, Germany). The cells were co-transfected with cDNA encoding the green fluorescent protein (pGreen Lantern plasmid, Life Technologies, Gaitherberg, Md.) to detect transfected cells (Chalfie et al., “Green Fluorescent Protein as a Marker for Gene Expression,” Science 263:802-805 (1994), which is hereby incorporated by reference in its entirety).
The cells were used for electrophysiological experiments between 24 and 72 h after each passage. Whole-cell currents evoked by glutamate or glycine (100 μM) were recorded using the whole-cell configuration (Hamill et al., “Improved Patch-Clamp Techniques for High-Resolution Current Recording From Cells and Cell-Free Membrane Patches,” Pfluegers Arch 391:85-100 (1981), which is hereby incorporated by reference in its entirety) at room temperature, −60 mV, and pH 7.4. […]

In the case of `CCN(CC)c1ccc2c(COC(=O)CCC(N)C(=O)O)cc(=O)oc2c1` (stereo not shown) [DECM-caged glutamate, (7-N,N-Diethylaminocoumarin-4-yl)-methyl-glutamate-trifluoroacetate], the “free glutamate in solution of caged compound” value was “no free glutamate was detected”.
